In US20160220602A1, “USE OF CHINESE MEDICINE PREPARATION IN PREPARING DRUG FOR PREVENTING AND/OR TREATING CROHN'S DISEASE” (TASLY PHARMACEUTICAL GROUP CO., LTD., priority 2013, published 2016):

Key:
[1] = tested on: zebra fish Crohn's disease model; assay: Histopathology of intestinal tissue in zebra fish Crohn's disease model (H&E); assay type: in vivo; settings: 10 μM in fish farm water
[2] = tested on: transgenic neutrophil fluorescent zebra fish Crohn's disease model; settings: 10 μM in fish farm water
[3] = tested on: zebra fish Crohn's disease model established with TNBS; assay: Efficacy in zebra fish Crohn's disease model (intestinal area, diameter, therapeutic ratio); assay type: in vivo; settings: 10 μM in fish farm water, 48 hours
Method: Meanwhile, the positive control group, blank control group, Crohn's disease model group and excipient control group were set in the research. In the positive control group, the prednisolone was finally at concentration of 10 μM in fish farm water. The enema excipient disclosed in Chinese patent (CN 1192787 C) was used in the excipient control group, including adding PEG-400 solutions containing tragacanth and potassium sorbate into the fish farm water in the volume ratio of 0.3%. Wherein, the PEG-400 solution was prepared following method: adding 1.5 g of tragacanth and 2 g of potassium sorbate (particle size of 150 μm) into 28ml PEG.
30 zebra fish were randomly given to each group. […] The image analysis software was used to analyze the pictures. Meanwhile, intestine mucosal thickness, intestinal diameter and intestinal area were observed carefully under the microscope and the intestinal diameter and intestinal area analyzed quantitatively. Therapeutic ratio of tested drug in zebra fish Crohn's disease was calculated in accordance with the intestinal area in each group. The calculation formula was present as follows: […]
Variance analysis was used for comparison among many groups and Dunnett's T test for comparison between two groups.

C[C@]12C=CC(=O)C=C1CC[C@@H]1[C@@H]2[C@@H](O)C[C@@]2(C)[C@H]1CC[C@]2(O)C(=O)CO [prednisolone]
Intestinal histopathology (H&E) [1]: the intestinal mucosal histopathology was improved obviously
Inflammation regression ratio (%) (Mean ± SE) [2]: 81±2.48%
Number of neutrophil (Mean ± SD) [2]: 20 ± 1
Number of neutrophil, Ratio of the blank control group (Mean ± SE) [2]: 1.22 ± 0.03
Intestinal area (Mean ± SD) [3]: 48646 ± 4685
Intestinal area, Ratio of blank control group (Mean ± SE) [3]: 1.31 ± 0.04
Intestinal diameter (Mean ± SD) [3]: 137 ± 11
Intestinal diameter, Ratio of blank control group (Mean ± SE) [3]: 1.02 ± 0.03
Therapeutic ratio (%) (Mean ± SE) ([3]; from intestinal area): 74±3.40%
